How the values were obtained:
[1] = molecular target: T1, β5 subunit of the human constitutive proteasome (CPS) (Homo sapiens, UniProt P28074); test: β5 inhibition assay, human constitutive proteasome (Suc-LLVY-AMC); type: biochemical; settings: IC50 class, Suc-LLVY-AMC substrate
T1 construct: purchased Boston Biochem E-360
Protocol: The enzymatic activity of the β5 subunit of the human constitutive proteasome (CPS) is analyzed. In another assay, which differs from the assay of the human constitutive proteasome only in using the human immunoproteasome (IPS) the enzymatic activity of the β5 subunit of the human immunoproteasome (IPS) is analyzed. […] Inhibition is indicated as IC50 [nM] (“-”=not measured).

[2] = molecular target: T2, β5 subunit of the human immunoproteasome (IPS) (Homo sapiens, UniProt P28062); test: β5 inhibition assay, human immunoproteasome (Suc-LLVY-AMC); type: biochemical; settings: IC50 class, Suc-LLVY-AMC substrate
T2 construct: purchased Boston Biochem E-370
Summary of the method: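 Human immunoproteasome (1 nM final) was preincubated 10 min at RT with compound in 100 mM HEPES pH 7.5, 50 mM NaCl, 0.02% SDS, 1 mM DTT. Suc-LLVY-AMC (22.6 μM final) was then added for 4 h at RT in the dark. After stopping with 1 μM bortezomib, AMC fluorescence was read (ex 355/em 460 nm).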

[3] = system: A549 (human lung carcinoma cell line); test: Glo assay of A549 cells (Table 3; ProteasomeGlo plating scheme); type: cell-based; settings: Homo sapiens; A549 cells; read-out: PGLo A549
Summary of the method: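 After acoustic compound transfer, plates incubate 105 min (37° C., 5% CO2). Proteasome-Glo reagent containing Suc-LLVY-Glo substrate is added, plates are shaken, then luminescence is measured after 10-15 min to derive IC50 [nM]. Staurosporine and DMSO serve as controls.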

[4] = system: Hs 746T (human gastric carcinoma cell line); test: 48 hr CTG viability assay, Hs 746T; type: cell-based; settings: Hs746T, 48 hr CTG, read-out: Hs 746T IC50
Summary of the method: (§1)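 Growth inhibition by compound over 48 h; IC50 (nM) derived from duplicate CellTiter-Glo luminescence readings across 0.0015–10 uM.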

[5] = system: MM1 S (B lymphoblast cell line); test: 48 hr CTG viability assay, MM1S; type: cell-based; settings: Homo sapiens, 48 hr CTG, read-out: MM1S IC50
Summary of the method: as §1

[6] = system: RPMI 8226 (B lymphocyte cell line, multiple myeloma); test: 48 hr CTG viability assay, RPMI 8226; type: cell-based; settings: Homo sapiens, RPMI-8226; 48 hr CTG; read-out: RPMI-8226 IC50
Summary of the method: as §1

Measured: IC50

Cc1ccc2cc1CNC(=O)[C@H](CCc1ccccc1)NC(=O)[C@@H](NC(=O)Cc1ccccc1)CCNC(=O)N1CCCC(CCO2)C1 (stereo partly drawn) [Compound 653, N-((9S,12S)-5^4-methyl-8,11,16-trioxo-9-phenethyl-4-oxa-7,10,15-triaza-1(3,1)-piperidina-5(1,3)-benzenacyclohexadecaphane-12-yl)-2-phenylacetamide]
< 0.1 µM: all assays above

Cc1ccc2cc1CNC(=O)[C@H](CCc1ccncc1)NC(=O)[C@@H](NC(=O)Cc1ccc(N)cc1C)CC(=O)N1CCCC(CCO2)C1 (stereo partly drawn) [Compound 654, 2-(4-amino-2-methylphenyl)-N-((9S,12S)-5^4-methyl-8,11,14-trioxo-9-(2-(pyridin-4-yl)ethyl)-4-oxa-7,10-diaza-1(3,1)-piperidina-5(1,3)-benzenacyclotetradecaphane-12-yl)acetamide]
< 0.1 µM: all assays above

Cc1ccc2cc1CNC(=O)[C@H](CCc1ccccc1)NC(=O)[C@@H](NC(=O)C13CC(O)(C1)C3)CC(=O)N1CCCC(CCO2)C1 (stereo partly drawn) [Compound 655, 3-hydroxy-N-((9S,12S)-5^4-methyl-8,11,14-trioxo-9-phenethyl-4-oxa-7,10-diaza-1(3,1)-piperidina-5(1,3)-benzenacyclotetradecaphane-12-yl)bicyclo[1.1.1]pentane-1-carboxamide]
< 0.1 µM: all assays above

Cc1ccc2cc1CNC(=O)[C@H](CCc1ccccc1)NC(=O)[C@@H](NC(=O)CCNC(=O)c1ccc(C3CCCCC3)cc1)CC(=O)N1CCCC(CCO2)C1 (stereo partly drawn) [Compound 656, 4-cyclohexyl-N-(3-(((9S,12S)-5^4-methyl-8,11,14-trioxo-9-phenethyl-4-oxa-7,10-diaza-1(3,1)-piperidina-5(1,3)-benzenacyclotetradecaphane-12-yl)amino)-3-oxopropyl)benzamide]
< 0.1 µM: all assays above

Cc1ccc2cc1CNC(=O)[C@H](CCc1ccccc1)NC(=O)[C@@H](NC(=O)CCNC1CC3(CCC3)C1)CC(=O)N1CCCC(CCO2)C1 (stereo partly drawn) [Compound 657, N-((9S,12S)-5^4-methyl-8,11,14-trioxo-9-phenethyl-4-oxa-7,10-diaza-1(3,1)-piperidina-5(1,3)-benzenacyclotetradecaphane-12-yl)-3-(spiro[3.3]heptan-2-ylamino)propanamide]
< 0.1 µM: all assays above

Cc1ccc2cc1CNC(=O)[C@H](CCc1ccccc1)NC(=O)[C@@H](NC(=O)CCN1CC3(CCOCC3)C1)CC(=O)N1CCCC(CCO2)C1 (stereo partly drawn) [Compound 658, N-((9S,12S)-5^4-methyl-8,11,14-trioxo-9-phenethyl-4-oxa-7,10-diaza-1(3,1)-piperidina-5(1,3)-benzenacyclotetradecaphane-12-yl)-3-(7-oxa-2-azaspiro[3.5]nonan-2-yl)propanamide]
< 0.1 µM: all assays above

Cc1ccc2cc1CNC(=O)[C@H](CCc1ccccc1)NC(=O)[C@@H](NC(=O)CCN1CC3(CCC3)C1)CC(=O)N1CCCC(CCO2)C1 (stereo partly drawn) [Compound 659, N-((9S,12S)-5^4-methyl-8,11,14-trioxo-9-phenethyl-4-oxa-7,10-diaza-1(3,1)-piperidina-5(1,3)-benzenacyclotetradecaphane-12-yl)-3-(2-azaspiro[3.3]heptan-2-yl)propanamide]
< 0.1 µM: all assays above

Cc1ccc2cc1CNC(=O)[C@H](CCc1ccccc1)NC(=O)[C@@H](NC(=O)CCN1CC3(COC3)C1)CC(=O)N1CCCC(CCO2)C1 (stereo partly drawn) [Compound 660, N-((9S,12S)-5^4-methyl-8,11,14-trioxo-9-phenethyl-4-oxa-7,10-diaza-1(3,1)-piperidina-5(1,3)-benzenacyclotetradecaphane-12-yl)-3-(2-oxa-6-azaspiro[3.3]heptan-6-yl)propanamide]
< 0.1 µM: all assays above

O=C(Cc1ccccc1)N[C@H]1CC(=O)N2CCCC(CCOc3ccc(F)c(c3)CNC(=O)[C@H](CCc3ccccc3)NC1=O)C2 (stereo partly drawn) [Compound 661, N-((9S,12S)-5^4-fluoro-8,11,14-trioxo-9-phenethyl-4-oxa-7,10-diaza-1(3,1)-piperidina-5(1,3)-benzenacyclotetradecaphane-12-yl)-2-phenylacetamide]
< 0.1 µM: all assays above

Cc1ccc2cc1CNC(=O)[C@H](CCc1ccccc1)NC(=O)[C@@H](NC(=O)C13CC(N)(C1)C3)CC(=O)N1CCCC(CCO2)C1 (stereo partly drawn) [Compound 662, 3-amino-N-((9S,12S)-5^4-methyl-8,11,14-trioxo-9-phenethyl-4-oxa-7,10-diaza-1(3,1)-piperidina-5(1,3)-benzenacyclotetradecaphane-12-yl)bicyclo[1.1.1]pentane-1-carboxamide]
< 0.1 µM: all assays above

Cc1ccc2cc1CNC(=O)[C@H](CCc1ccccc1)NC(=O)[C@@H](NC(=O)CN1CCC1)CC(=O)N1CCCC(CCO2)C1 (stereo partly drawn) [Compound 663, 2-(azetidin-1-yl)-N-((9S,12S)-5^4-methyl-8,11,14-trioxo-9-phenethyl-4-oxa-7,10-diaza-1(3,1)-piperidina-5(1,3)-benzenacyclotetradecaphane-12-yl)acetamide]
< 0.1 µM: all assays above

Cc1ccc2cc1CNC(=O)[C@H](CCc1ccccc1)NC(=O)[C@@H](NC(=O)CCNCc1cccc(N3CCOCC3)c1)CC(=O)N1CCCC(CCO2)C1 (stereo partly drawn) [Compound 665, N-((9S,12S)-5^4-methyl-8,11,14-trioxo-9-phenethyl-4-oxa-7,10-diaza-1(3,1)-piperidina-5(1,3)-benzenacyclotetradecaphane-12-yl)-3-((3-morpholinobenzyl)amino)propanamide]
< 0.1 µM: all assays above

Cc1ccc2cc1CNC(=O)[C@H](CCc1ccccc1)NC(=O)[C@@H](NC(=O)N1CC(C)(C)c3cc(N)ccc31)CC(=O)N1CCCC(CCO2)C1 (stereo partly drawn) [Compound 666, 5-amino-3,3-dimethyl-N-((9S,12S)-5^4-methyl-8,11,14-trioxo-9-phenethyl-4-oxa-7,10-diaza-1(3,1)-piperidina-5(1,3)-benzenacyclotetradecaphane-12-yl)indoline-1-carboxamide]
< 0.1 µM: all assays above

Cc1ccc2cc1CNC(=O)[C@H](CCc1ccccc1)NC(=O)[C@@H](NC(=O)N1CCCc3cc(N)ccc31)CC(=O)N1CCCC(CCO2)C1 (stereo partly drawn) [Compound 667, 6-amino-N-((9S,12S)-5^4-methyl-8,11,14-trioxo-9-phenethyl-4-oxa-7,10-diaza-1(3,1)-piperidina-5(1,3)-benzenacyclotetradecaphane-12-yl)-3,4-dihydroquinoline-1(2H)-carboxamide]
< 0.1 µM: all assays above

Cc1ccc2cc1CNC(=O)[C@H](CCc1ccccc1)NC(=O)[C@@H](NC(=O)CCN1CCCC1)CC(=O)N1CCCC(CCO2)C1 (stereo partly drawn) [Compound 668, N-((9S,12S)-5^4-methyl-8,11,14-trioxo-9-phenethyl-4-oxa-7,10-diaza-1(3,1)-piperidina-5(1,3)-benzenacyclotetradecaphane-12-yl)-3-(pyrrolidin-1-yl)propanamide]
< 0.1 µM: all assays above
